Common to all, as to type: in vivo
Assay [1] relates to Eggs of Tetranychus Cinnabarinus. In words: Activity assay of eggs of Tetranychus cinnabarinus (spray method, ovicidal). The conditions noted are these: Tetranychus cinnabarinus; for pest or weed control at 2 µg/mL: concentration 2 mg/L. An outline of the steps: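 Ovicidal spray test: compound dissolved in DMF, diluted with 1‰ Tween 80 (DMF ≤10%), sprayed on eggs laid during 24 h by females on broad bean leaves. Culture at 26±2° C, 70–80% RH, 16 h photoperiod; non-hatched eggs scored as dead when blank control hatched; three repeats.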

Assay [2] has as its system adult Tetranychus cinnabarinus. The experiment in a line: Activity assay of adult Tetranychus cinnabarinus (whole-plant spray on bean seedlings). The conditions noted are these: 48 h; for pest or weed control at 1.25 µg/mL: concentration 1.25 mg/L. The procedure, abridged:
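Whole plants sprayed after adult mite inoculation and initial census, using compound dissolved in DMF and made up with 1‰ Tween 80 water (DMF not above 10%). Mortality derived from survivor counts at 48 h after treatment. Each treatment run in triplicate.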

The subject of assay [3] is Tetranychus cinnabarinus Nymphs. The experiment in a line: Activity assay of Tetranychus cinnabarinus nymphs (spray on broad bean leaves). An outline of the steps: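 Mortality, judged as no response to gentle touch, was scored 48 h after spraying Tetranychus cinnabarinus nymphs on broad bean leaves (eggs from females removed after 24 h). Test solutions: DMF-dissolved compound, ≤10% DMF, in 1‰ Tween 80; 26±2° C., 70%–80% RH, 16 h light; triplicate, blank control.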

Setting [4] is: concentration 5 mg/L, spray, non-incubated eggs counted as dead, read-out: ovicidal activity.
[5] abbreviates: concentration 2.5 mg/L, read-out: adult mite-killing activity.
The mark [6] stands for this setting: 48 h, concentration 2.5 mg/L, read-out: nymph-killing activity.
The mark [7] stands for this setting: read-out: adult mite-killing activity.
The mark [8] stands for this setting: 48 h, read-out: nymph-killing activity.
Where [9] appears, read: spray, read-out: ovicidal activity.
[10] abbreviates: eggs, parallel determination, read-out: Death rate (%).
Setting [11] is: adult mites, parallel determination, read-out: Death rate (%).
Setting [12] is: 48 h, concentration 2 mg/L, read-out: nymph-killing activity.
The mark [13] stands for this setting: 48 h, nymphs, concentration 0.5 mg/L, parallel determination, read-out: Death rate (%).

Like-named read-outs stand apart in the source and are kept apart here.

For the molecule `Cc1cc(/C(OCOC(=O)CC(C)C)=C(\C#N)c2ccc(C(C)(C)C)cc2)n(C)n1` [Compound 7], the pest or weed control at 5 µg/mL in assay [1] (setting [4]) is at least 90%. For the same molecule, the values for the pest or weed control at 2.5 µg/mL in assay [2] (setting [5]) and in assay [3] (setting [6]) were at least 90% and at least 95%, respectively.

In the case of `CCn1nc(C)cc1/C(OC(C)OC(=O)CF)=C(\C#N)c1ccc(C(C)(C)C)cc1` (stereo not drawn) [Compound 262], the pest or weed control at 5 µg/mL in assay [1] (read-out: ovicidal activity) is at least 90%. Also, the results for the pest or weed control at 2.5 µg/mL in assay [2] (setting [7]) and in assay [3] (setting [8]) were at least 90% and at least 95%, respectively.

With `Cc1cc(/C(OC(C)OC(=O)OCCCl)=C(\C#N)c2ccc(C(C)(C)C)cc2)n(C)n1` (stereo not drawn) [Compound 494], the pest or weed control at 5 µg/mL in assay [1] (setting [4]) was at least 90%. The pest or weed control at 2.5 µg/mL in assay [2] (setting [5]) was at least 90%; in assay [3] (setting [6]), at least 95%.

Turning to `Cc1cc(/C(OC(C)OC(=O)C(F)(F)F)=C(\C#N)c2ccc(C(C)(C)C)cc2)n(C)n1` (stereo not drawn) [Compound 38], the pest or weed control at 5 µg/mL in assay [1] (setting [4]) was at least 90%. The values for the pest or weed control at 2.5 µg/mL in assay [2] (setting [5]) and in assay [3] (setting [6]) were at least 90% and at least 95%, respectively.

In the case of `CCn1nc(C)c(C)c1/C(OCOC(=O)OCC(C)C)=C(\C#N)c1ccc(C(C)(C)C)cc1` [Compound 937], the pest or weed control at 2 µg/mL is at least 90% in assay [1] (setting [9]), 100% in assay [1] (setting [10]) and at least 90% in assay [3] (setting [12]). Also, in assay [1] (setting [4]), the pest or weed control at 5 µg/mL is at least 90%. Besides, the pest or weed control at 1.25 µg/mL in assay [2] (setting [11]) was 100%; in assay [2] (setting [7]), at least 90%. Moreover, the pest or weed control at 2.5 µg/mL is at least 90% in assay [2] (setting [5]) and at least 95% in assay [3] (setting [6]). Moreover, the pest or weed control at 0.5 µg/mL in assay [3] (setting [13]) amounted to 90%.

`CCn1nc(C)c(C)c1/C(OC(C)OC(=O)C(F)(F)F)=C(\C#N)c1ccc(C(C)(C)C)cc1` (stereo not drawn) [Compound 413]: in assay [1] (setting [4]), the pest or weed control at 5 µg/mL was at least 90%. For the same molecule, the pest or weed control at 2.5 µg/mL in assay [2] (setting [5]) was at least 90%; in assay [3] (setting [6]) it was at least 95%.

For the molecule `CCn1nc(C)c(C)c1/C(OC(C)OC(C)=O)=C(\C#N)c1ccc(C(C)(C)C)cc1` (stereo not drawn) [Compound 401], the pest or weed control at 2 µg/mL in assay [1] (setting [9]) and in assay [3] (setting [12]) was at least 90% each time. Also, the pest or weed control at 5 µg/mL in assay [1] (setting [4]) is at least 90%. The pest or weed control at 1.25 µg/mL in assay [2] (setting [7]) is at least 90%. The values for the pest or weed control at 2.5 µg/mL in assay [2] (setting [5]) and in assay [3] (setting [6]) were at least 90% and at least 95%, respectively.

In the case of `CCCC(=O)OCO/C(=C(/C#N)c1ccc(C(C)(C)C)cc1)c1c(Cl)c(C)nn1C` [Compound 78], the pest or weed control at 5 µg/mL in assay [1] (setting [4]) is at least 90%. For the same molecule, the results for the pest or weed control at 2.5 µg/mL in assay [2] (setting [5]) and in assay [3] (setting [6]) were at least 90% and at least 95%, respectively.

`CCC(=O)OCO/C(=C(/C#N)c1ccc(C(C)(C)C)cc1)c1c(C)c(C)nn1C` [Compound 152]: the pest or weed control at 5 µg/mL in assay [1] (setting [4]) was at least 90%. Further, the pest or weed control at 2.5 µg/mL was at least 90% in assay [2] (setting [5]) and at least 95% in assay [3] (setting [6]).

For `CCC(=O)OCO/C(=C(/C#N)c1ccc(C(C)(C)C)cc1)c1cc(C)nn1CC` [Compound 227], the figures for the pest or weed control at 2 µg/mL in assay [1] (setting [9]), in assay [1] (setting [10]) and in assay [3] (setting [12]) were at least 90%, 97% and at least 90%, respectively. The pest or weed control at 5 µg/mL in assay [1] (setting [4]) was at least 90%. Further, the pest or weed control at 1.25 µg/mL is 98% in assay [2] (setting [11]) and at least 90% in assay [2] (setting [7]). In addition, the pest or weed control at 2.5 µg/mL in assay [2] (setting [5]) was at least 90%; in assay [3] (setting [6]), at least 95%. In addition, the pest or weed control at 0.5 µg/mL in assay [3] (setting [13]) amounted to 94%.

Take `Cc1cc(/C(OCOC(=O)C(C)C)=C(\C#N)c2ccc(C(C)(C)C)cc2)n(C)n1` [Compound 4]: the pest or weed control at 5 µg/mL in assay [1] (setting [4]) was at least 90%. In addition, the pest or weed control at 2.5 µg/mL in assay [2] (setting [5]) was at least 90%; in assay [3] (setting [6]), at least 95%.

`CCn1nc(C)c(Cl)c1/C(OCOC(=O)C(C)(C)CC)=C(\C#N)c1ccc(C(C)(C)C)cc1` [Compound 316]: the pest or weed control at 5 µg/mL in assay [1] (setting [4]) was at least 90%. For the same molecule, the pest or weed control at 2.5 µg/mL is at least 90% in assay [2] (setting [5]) and at least 95% in assay [3] (setting [6]).

For the molecule `CCn1nc(C)c(C)c1/C(OCOC(=O)C(C)(C)CC)=C(\C#N)c1ccc(C(C)(C)C)cc1` [Compound 391], the pest or weed control at 5 µg/mL in assay [1] (setting [4]) was at least 90%. The pest or weed control at 2.5 µg/mL was at least 90% in assay [2] (setting [5]) and at least 95% in assay [3] (setting [6]).

In the case of `CCOC(=O)OC(C)O/C(=C(/C#N)c1ccc(C(C)(C)C)cc1)c1cc(C)nn1CC` (stereo not drawn) [Compound 580], the pest or weed control at 2 µg/mL in assay [1] (setting [9]) and in assay [3] (setting [12]) was at least 90% in each case. For the same molecule, the pest or weed control at 5 µg/mL in assay [1] (setting [4]) was at least 90%. Also, in assay [2] (setting [7]), the pest or weed control at 1.25 µg/mL is at least 90%. The pest or weed control at 2.5 µg/mL was at least 90% in assay [2] (setting [5]) and at least 95% in assay [3] (setting [6]).

Turning to `CCn1nc(C)cc1/C(OC(C)OC(=O)Cc1ccccc1)=C(\C#N)c1ccc(C(C)(C)C)cc1` (stereo not drawn) [Compound 265], in assay [1] (setting [4]), the pest or weed control at 5 µg/mL was at least 90%. Besides, the pest or weed control at 2.5 µg/mL is at least 90% in assay [2] (setting [5]) and at least 95% in assay [3] (concentration 2.5 mg/L, 48 h, read-out: nymph-killing activity).

Consider `Cc1nn(C)c(/C(OCOC(=O)CC(C)C)=C(\C#N)c2ccc(C(C)(C)C)cc2)c1Cl` [Compound 82], for which the pest or weed control at 5 µg/mL in assay [1] (setting [4]) was at least 90%. Besides, the figures for the pest or weed control at 2.5 µg/mL in assay [2] (setting [5]) and in assay [3] (setting [6]) were at least 90% and at least 95%, respectively.

Regarding `Cc1nn(C)c(/C(OC(C)OC(=O)CF)=C(\C#N)c2ccc(C(C)(C)C)cc2)c1C` (stereo not drawn) [Compound 187], the pest or weed control at 5 µg/mL in assay [1] (read-out: ovicidal activity) is at least 90%. Also, the pest or weed control at 2.5 µg/mL in assay [2] (setting [7]) was at least 90%; in assay [3] (setting [8]), at least 95%.

Turning to `CCSC(=O)OC(C)O/C(=C(/C#N)c1ccc(C(C)(C)C)cc1)c1cc(C)nn1CC` (stereo not drawn) [Compound 608], the pest or weed control at 5 µg/mL in assay [1] (setting [4]) is at least 90%. In addition, the pest or weed control at 2.5 µg/mL is at least 90% in assay [2] (setting [5]) and at least 95% in assay [3] (setting [6]).

For `CCn1nc(C)cc1/C(OC(C)OC(=O)C1CCCCC1)=C(\C#N)c1ccc(C(C)(C)C)cc1` (stereo not drawn) [Compound 261], the pest or weed control at 5 µg/mL in assay [1] (setting [4]) was at least 90%. The pest or weed control at 2.5 µg/mL in assay [2] (setting [5]) was at least 90%; in assay [3] (setting [6]) it was at least 95%.

As to `CCn1nc(C)c(Cl)c1/C(OCOC(C)=O)=C(\C#N)c1ccc(C(C)(C)C)cc1` [Compound 301], the values for the pest or weed control at 2 µg/mL in assay [1] (setting [9]), in assay [1] (setting [10]) and in assay [3] (setting [12]) were at least 90%, 95% and at least 90%, respectively. Further, the pest or weed control at 5 µg/mL in assay [1] (setting [4]) is at least 90%. Also, the pest or weed control at 1.25 µg/mL was 90% in assay [2] (setting [11]) and at least 90% in assay [2] (setting [7]). In addition, the values for the pest or weed control at 2.5 µg/mL in assay [2] (setting [5]) and in assay [3] (setting [6]) were at least 90% and at least 95%, respectively. Moreover, the pest or weed control at 0.5 µg/mL in assay [3] (setting [13]) is 90%.

Regarding `Cc1cc(/C(OCOC(=O)OCCC(C)C)=C(\C#N)c2ccc(C(C)(C)C)cc2)n(C)n1` [Compound 458], the pest or weed control at 5 µg/mL in assay [1] (setting [4]) is at least 90%. Besides, the pest or weed control at 2.5 µg/mL in assay [2] (setting [5]) was at least 90%; in assay [3] (setting [6]), at least 95%.

For the molecule `CCn1nc(C)c(C)c1/C(OC(C)OC(=O)C(C)C)=C(\C#N)c1ccc(C(C)(C)C)cc1` (stereo not drawn) [Compound 404], the pest or weed control at 5 µg/mL in assay [1] (setting [4]) is at least 90%. For the same molecule, the pest or weed control at 2.5 µg/mL is at least 90% in assay [2] (setting [5]) and at least 95% in assay [3] (setting [6]).

Turning to `CCn1nc(C)c(C)c1/C(OC(C)OC(=O)OC)=C(\C#N)c1ccc(C(C)(C)C)cc1` (stereo not drawn) [Compound 963], the pest or weed control at 2 µg/mL in assay [1] (setting [9]) and in assay [3] (setting [12]) was at least 90% each time. Besides, the pest or weed control at 5 µg/mL in assay [1] (setting [4]) was at least 90%. Further, the pest or weed control at 1.25 µg/mL in assay [2] (setting [7]) is at least 90%. The values for the pest or weed control at 2.5 µg/mL in assay [2] (setting [5]) and in assay [3] (setting [6]) were at least 90% and at least 95%, respectively.

The record behind these values is US11104648B2, “Pyrazole derivative” (Zhejiang Research Institute of Chemical Industry Co., Ltd., priority 2018, dated 2021).
